{
  "source": "patent US20160000762A1",
  "about": "“IMPROVING COGNITIVE FUNCTION” (THE REGENTS OF THE UNIVERSITY OF CALIFORNIA, priority 2013, published 2016)",
  "origin": "cited, not measured here",
  "tested_on": "Aβ",
  "conditions": "after traumatic brain injury; Loane et al., 2009; cited from earlier work",
  "data": [
    {"smiles": "C[C@H](NC(=O)Cc1cc(F)cc(F)c1)C(=O)N[C@H](C(=O)OC(C)(C)C)c1ccccc1", "note": "[DAPT]", "values": [
      {"measurement": "Aβ levels", "result": "decreased"},
      {"measurement": "behavioral performance", "result": "improved"}
    ]}
  ]
}
